Assay results reported in article PMC7735735, “Store-Operated Calcium Entry as a Therapeutic Target in Acute Pancreatitis: Discovery and Development of Drug-Like SOCE Inhibitors” (Journal of Medicinal Chemistry, 2020).
Where two headings read alike, the source gives them in different places.

What was measured:
SOCE [1] = assay: SOCE inhibition in HEK cells by fluorescence microscopy (calcium imaging); assay type: cell-based, human; settings: for AUC, peak amplitude, and slope of the Ca2+-rise: selected compounds, Figure S1; for inhibition at 3 µM / inhibition at 10 µM: Homo sapiens; for inhibition at 10 µM: negative value = increased Ca2+ entry vs control
Method: With these two compounds in hand, two click reactions were performed and compounds 9 and 18 (Table 1), displaying the same substructures as the reference compound Synta66, were obtained with a yield of 31 and 60%, respectively. 9 and 18 were tested for activity on SOCE in HEK cells, a human embryonic kidney (HEK) cell line, by fluorescence microscopy, as described elsewhere.[16] After 600 s, Ca^2+ was added and intracellular levels were measured.
Screening, dose–response experiments, and calcium imaging experiments were performed in HEK cells (ATCC, Rock, ville, MD, USA), as already reported elsewhere.[16]

HEK cells [2] = test system: HEK cells
SOCE [3] = test system: SOCE; design: method as in PMID 29038464; settings: HEK cells; cited from earlier work
chemically induced AP = test system: chemically induced AP; design: method as in PMID 31050811; settings: three different murine models; cited from earlier work
HEK cells [4] = assay: HEK cell viability after 72 h at 50 μM with or without uridine (involvement of DHODH); settings: 50 μM, 72 h; for reversal of cytotoxicity by uridine: uridine 100 μM
ICRAC = test system: ICRAC; design: method as in PMID 19648266; settings: cited from earlier work
[5] = HEK293, supplementary CSV, HEK cells, read-out: % SOCE Inhibition (3 µM)

## COc1ccc(OC)c(-c2ccc(-c3cn(-c4cccnc4)nn3)cc2)c1 [Compound 20, 3-(4-(2′,5′-Dimethoxy-[1,1′-biphenyl]-4-yl)-1H-1,2,3-triazol-1-yl)pyridine]
SOCE [1]; HEK cells
  effect on SOCE, in words: not able to reliably inhibit SOCE

## O=C(O)c1cccc(-c2cn(-c3ccc(-c4cccc5c4OCCO5)cc3)nn2)c1 [Compound 35, 3-(1-(4-(2,3-Dihydrobenzo[b][1,4]dioxin-5-yl)phenyl)-1H-1,2,3-triazol-4-yl)benzoic Acid]
SOCE [1]; HEK cells
  AUC, peak amplitude, and slope of the Ca2+-rise: induced a drop in the three parameters

## COc1cccc(OC)c1-c1ccc(-c2cn(-c3cccc(C(=O)O)c3)nn2)cc1 [Compound 47, 3-(4-(2′,6′-Dimethoxy-[1,1′-biphenyl]-4-yl)-1H-1,2,3-triazol-1-yl)benzoic Acid]
SOCE [1]; HEK cells
  effect on SOCE, in words: positive modulator of SOCE
SOCE [1]; HEK cells, 3 μM
  AUC of calcium entry and peak amplitude vs control: significantly increased the AUC of calcium entry and the peak amplitude
  slope of the Ca2+-rise vs control: absence of effect on slope
SOCE [1]; HEK293, HEK cells, 3 μM, negative value = increased SOCE, read-out: % SOCE inhibition (3 μM)
  inhibition at 3 µM: -22.8 ± 0.9%

## COc1ccc(OC)c(-c2ccc(-n3cc(-c4ccccn4)nn3)cc2)c1 [Compound 12, 2-(1-(2′,5′-Dimethoxy-[1,1′-biphenyl]-4-yl)-1H-1,2,3-triazol-4-yl)pyridine]
SOCE [1]; HEK293, HEK cells, 10 μM
  inhibition at 10 µM: 0%
SOCE [1]; [5]
  inhibition at 3 µM: 0%

## COc1cccc(-c2ccc(-c3cn(-c4cccc(C(=O)O)c4)nn3)cc2)c1OC [Compound 50, 3-(4-(2′,3′-Dimethoxy-[1,1′-biphenyl]-4-yl)-1H-1,2,3-triazol-1-yl)benzoic Acid]
SOCE [1]; HEK cells
  AUC, peak amplitude, and slope of the Ca2+-rise: induced a drop in the three parameters

## Cc1c(-c2ccc(-c3ccccc3F)cc2)nc2ccc(F)cc2c1C(=O)O [brequinar]
HEK cells [2]
  cell viability / cytotoxicity at 50 μM, 72 h: cytotoxic
  reversal of cytotoxicity by uridine: reverted by uridine addition

## C/C(O)=C(\C#N)C(=O)Nc1ccc(C(F)(F)F)cc1 [teriflunomide]
SOCE [3]
  IC50: 4.3 ± 1 µM

## COc1cccc(-c2ccc(-n3cc(-c4cccc(C(=O)O)c4)nn3)cc2)c1 [Compound 31, 3-(1-(3′-Methoxy-[1,1′-biphenyl]-4-yl)-1H-1,2,3-triazol-4-yl)benzoic Acid]
SOCE [1]; HEK cells
  AUC, peak amplitude, and slope of the Ca2+-rise: induced a drop in the three parameters

## COc1ccc(F)c(-c2ccc(-n3cc(-c4cccc(C(=O)O)c4)nn3)cc2)c1 [Compound 40, 3-(1-(2′-Fluoro-5′-methoxy-[1,1′-biphenyl]-4-yl)-1H-1,2,3-triazol-4-yl)benzoic Acid]
SOCE [1]; HEK cells
  AUC, peak amplitude, and slope of the Ca2+-rise: induced a drop in the three parameters

## Cc1cccc(F)c1C(=O)Nc1cnc(-c2cc3c(cc2Cl)OC(F)(F)O3)cn1 [CM4620, reference compound]
Chemically induced AP
  protection in murine models of chemically induced AP: protective
HEK cells [4]
  cell viability / cytotoxicity at 50 μM, 72 h: cytotoxic
  reversal of cytotoxicity by uridine: not reverted by uridine

## O=C(O)c1cccc(NC(=O)c2ccc(-c3ccc4c(c3)OCCO4)cc2)c1 [Compound 69, 3-(4-(2,3-Dihydrobenzo[b][1,4]dioxin-6-yl)benzamido)benzoic Acid]
SOCE [1]; HEK cells
  effect on SOCE, in words: significantly reduced activity compared to the parent compound

## COc1ccc(OC)c(-c2ccc(NC(=O)c3ccncc3F)cc2)c1 [Synta66, reference compound]
ICRAC
  IC50: 1.4 to 3 µM
HEK cells [4]
  cell viability / cytotoxicity at 50 μM, 72 h: significant cytotoxicity
SOCE [1]; HEK cells, 10 μM
  AUC and peak amplitude of the Ca2+-rise vs control: significantly reduced AUC and peak amplitude
  slope of the Ca2+-rise vs control: significant effect on the slope
SOCE [1]; HEK293, HEK cells, 10 μM
  inhibition at 10 µM: 90.8 ± 1.7%
SOCE [1]; [5]
  inhibition at 3 µM: 90.8 ± 1.7%

## COc1ccc(OC)c(-c2ccc(-n3cc(-c4ccncc4F)nn3)cc2)c1 [Compound 9, 4-(1-(2′,5′-Dimethoxy-[1,1′-biphenyl]-4-yl)-1H-1,2,3-triazol-4-yl)-3-fluoropyridine]
SOCE [1]; HEK cells
  effect on SOCE, in words: not able to reliably inhibit SOCE

## O=C(O)c1cccc(C(=O)Nc2ccc(-c3ccc4c(c3)OCCO4)cc2)c1 [Compound 64, 3-((4-(2,3-Dihydrobenzo[b][1,4]dioxin-6-yl)phenyl)carbamoyl)benzoic Acid]
HEK cells [4]
  cell viability / cytotoxicity at 50 μM, 72 h: significant cytotoxicity
  reversal of cytotoxicity by uridine: fully reverted by uridine
SOCE [1]; HEK cells
  effect on SOCE, in words: significantly reduced activity compared to the parent compound

## COc1ccc(OC)c(-c2ccc(-n3cc(-c4cccc(C(=O)O)c4)nn3)cc2)c1 [Compound 14, 3-(1-(2′,5′-Dimethoxy-[1,1′-biphenyl]-4-yl)-1H-1,2,3-triazol-4-yl)benzoic Acid]
SOCE [1]; HEK293, HEK cells, 10 μM
  inhibition at 10 µM: > 70%

## COc1ccc(OC)c(-c2ccc(-c3cn(-c4cccc(C(=O)O)c4)nn3)cc2)c1 [Compound 23, 3-(4-(2′,5′-Dimethoxy-[1,1′-biphenyl]-4-yl)-1H-1,2,3-triazol-1-yl)benzoic Acid]
SOCE [1]; HEK cells, 10 μM
  AUC and peak amplitude of the Ca2+-rise vs control: significantly reduced AUC and peak amplitude
SOCE [1]; HEK293, HEK cells, 10 μM
  inhibition at 10 µM: > 70%

## COc1ccc(OC)c(-c2ccc(-c3cn(-c4ccncc4)nn3)cc2)c1 [Compound 19, 4-(4-(2′,5′-Dimethoxy-[1,1′-biphenyl]-4-yl)-1H-1,2,3-triazol-1-yl)pyridine]
SOCE [1]; HEK cells
  effect on SOCE, in words: not able to reliably inhibit SOCE

## COc1ccc(OC)c(-c2ccc(-n3cc(-c4ccnc(C(=O)O)c4)nn3)cc2)c1 [Compound 13, 4-(1-(2′,5′-Dimethoxy-[1,1′-biphenyl]-4-yl)-1H-1,2,3-triazol-4-yl)picolinic Acid]
SOCE [1]; HEK293, HEK cells, 10 μM
  inhibition at 10 µM: > 70%

## COc1ccc(F)c(-c2ccc(-c3cn(-c4cccc(C(=O)O)c4)nn3)cc2)c1 [Compound 56, 3-(4-(2′-Fluoro-5′-methoxy-[1,1′-biphenyl]-4-yl)-1H-1,2,3-triazol-1-yl)benzoic Acid]
SOCE [1]; HEK cells
  AUC, peak amplitude, and slope of the Ca2+-rise: induced a drop in the three parameters

## O=C(O)c1cccc(-c2cn(-c3ccc(-c4ccc5c(c4)OCCO5)cc3)nn2)c1 [Compound 38, 3-(1-(4-(2,3-Dihydrobenzo[b][1,4]dioxin-6-yl)phenyl)-1H-1,2,3-triazol-4-yl)benzoic Acid]
SOCE [1]; HEK cells
  AUC, peak amplitude, and slope of the Ca2+-rise: induced a drop in the three parameters

## COC(=O)c1cc(-n2cc(-c3ccc(-c4cc(OC)ccc4OC)cc3)nn2)ccn1 [Compound 21, Methyl 4-(4-(2′,5′-Dimethoxy-[1,1′-biphenyl]-4-yl)-1H-1,2,3-triazol-1-yl)picolinate]
SOCE [1]; HEK293, HEK cells, 10 μM
  inhibition at 10 µM: > 70%

## COc1ccc(OC)c(-c2ccc(-n3cc(-c4ccncc4)nn3)cc2)c1 [Compound 10, 4-(1-(2′,5′-Dimethoxy-[1,1′-biphenyl]-4-yl)-1H-1,2,3-triazol-4-yl)pyridine]
SOCE [1]; HEK cells
  effect on SOCE, in words: not able to reliably inhibit SOCE
SOCE [1]; HEK293, HEK cells, 10 μM
  inhibition at 10 µM: -12.8 ± 14.4%
SOCE [1]; [5]
  inhibition at 3 µM: -12.8 ± 14.4%

## O=C(Nc1ccn(Cc2ccc(O)cc2C(F)(F)F)n1)c1c(F)cccc1F [GSK-7975A]
Chemically induced AP
  protection in murine models of chemically induced AP: protective

## COc1cc(OC)cc(-c2ccc(-n3cc(-c4cccc(C(=O)O)c4)nn3)cc2)c1 [Compound 36, 3-(1-(3′,5′-Dimethoxy-[1,1′-biphenyl]-4-yl)-1H-1,2,3-triazol-4-yl)benzoic Acid]
SOCE [1]; HEK cells
  AUC, peak amplitude, and slope of the Ca2+-rise: induced a drop in the three parameters

## COc1ccc(OC)c(-c2ccc(-n3cc(-c4cccnc4)nn3)cc2)c1 [Compound 11, 3-(1-(2′,5′-Dimethoxy-[1,1′-biphenyl]-4-yl)-1H-1,2,3-triazol-4-yl)pyridine]
SOCE [1]; HEK cells
  effect on SOCE, in words: not able to reliably inhibit SOCE
SOCE [1]; HEK293, HEK cells, 10 μM
  inhibition at 10 µM: -14 ± 31.9%
SOCE [1]; [5]
  inhibition at 3 µM: -14 ± 31.9%
